This is an account of results in patent US20210100242A1, “FORMULATIONS FOR CONTROL AND REPELLENCY OF BITING ARTHROPODS” (BEDOUKIAN RESEARCH, INC., priority 2019, published 2021).

The test system of this assay is Adult female Aedes aegypti. Nature of the assay: Membrane feeder repellency test: mosquitoes probing treated collagen membranes over blood-filled wells. The format is in vivo. The settings on record: Total repellent 0.30%. On the procedure: Adult female Aedes aegypti were obtained from the i2LResearch USA, Inc. colony. Two hundred fifty (250) mosquitoes were used per replicate (seven replicates). Mosquitoes were at least 6 days old and had been deprived of sucrose solution for at least 18 hours prior to testing.
An exposure container was used to present the mosquitoes with a choice of blood-filled wells that were covered with collagen membranes (3 cm in diameter). The collagen membranes were treated by pipetting 6.25 μl of the test treatment onto the appropriate membrane and spreading it evenly with the tip of the pipette.
Exposure container. A 30.5 cm×30.5 cm×30.5 cm container (rigid plastic frame and a sleeved entry on one side and a sliding trap door on the bottom). The container was supported by four (4 cm high) legs.
Membrane feeder. Five wells (3 cm in diameter x 8 mm in depth) in line on a hollow plastic block (6 cm wide x 22 cm long x 3 cm deep). The plastic block fit into the bottom of the exposure container. Hoses mounted on either end of the membrane feeder carried warm water that was pumped from a water bath. The sliding plastic trap door in the bottom of the exposure container covered and uncovered the wells in the membrane feeder, allowing mosquitoes to access the blood-filled wells that were covered with treated collagen membranes.
Study set-up. The membrane feeder was connected to a heated water bath, and warm water passed through the feeder via a circulating pump so that the wells were warmed to 96-100° F. Seventy-two (72) mg of ATP (disodium salt) were added to 26 ml of bovine blood. Sodium citrate was also added to the blood during collection to prevent clotting. The blood was poured into the wells until it completely filled each well (meniscus slightly above the level of the well).
Circular pieces (3 cm in diameter) of collagen membrane were placed over each of the wells. […]
Treatment and exposure to mosquitoes. […] The number of mosquitoes probing the membrane covering each well was recorded every two minutes for twenty minutes. […]
Take `CCN(CC)C(=O)c1cccc(C)c1` [DEET, N,N-diethyl-m-toluamide, reference compound]: the “Test result, percentage relative to 0.3 wt % DEET in the same test” value is 100.0%.

Take `CC1CCC(C(C)(C)O)C(O)C1` (stereo not drawn) [PMD, para-menthane-3,8-diol, reference compound]: the “Test result, percentage relative to 0.3 wt % DEET in the same test” value came out at 84.6%.

For the compound `CCNC(=O)C1CC(C)CCC1C(C)C` (stereo not drawn) [WS3, N-ethyl-p-menthane-3-carboxamide], the “Test result, percentage relative to 0.3 wt % DEET in the same test” value came to 130.0%.
